US11634417B2 (Array BioPharma Inc., priority 2019, dated 2023)
pIC50: −log10 of the molar value.

What was measured:
[1] = system: ERK1/2 (Thr202/Tyr204) phosphorylation in KYSE520 cells; test: Cellular Phospho-p44/42 MAPK (Erk1/2) (Thr202/Tyr204) assay, In-Cell Western; format: cell-based; conditions: Homo sapiens, KYSE-520; KYSE520 cells, 1 hour incubation, pERK signal normalized to GAPDH; single assay or mean of multiple assays; read-out: Biological Example 2 IC50
Protocol: Inhibition of ERK1/2 (Thr202/Tyr204) phosphorylation was determined by the following cellular assay, which comprises incubating cells with a compound for 1 hour and quantifying pERK signal by In-Cell Western on fixed cells and normalizing to GAPDH signal. KYSE520 cells were obtained from DSMZ and grown in RPMI supplemented with 10% fetal bovine serum, penicillin/streptomycin, 2 mM L-alanyl-L-glutamine dipeptide in 0.85% NaCl (Glutamax™), non-essential amino acids, and sodium pyruvate. Cells were plated in 96-well plates at 30,000 cells/well and allowed to attach overnight at 37° C./5% CO2. Cells were treated with compounds prepared as a 10-point, 1:3 dilution series (range: 20 μM-1 nM), with a final DMSO concentration of 0.5%. After 1 hour incubation, cells were fixed in 3.7% formaldehyde in Dulbecco's phosphate-buffered saline (“dPBS”) at room temperature for 20 minutes. Cells were then washed with dPBS and permeabilized in 100% MeOH at room temperature for 10 minutes. Following permeabilization, cells were washed in dPBS and incubated in LI-COR Blocking Buffer (LI-COR Biosciences, Cat #927-40000) for 1 hour or longer. Plates were then incubated with an antibody specific for the MEK-dependent ERK1/2 phosphorylation sites, threonine 202 and tyrosine 204 (Cell Signaling Technologies; Cat #9101), downstream of SHP2 in the MAP kinase signal transduction pathway, as well as GAPDH (Millipore; Cat #MAB374). pErk1/2 (Thr202/Tyr204) antibody was diluted in LI-COR blocking buffer containing 0.05% polysorbate-20 (Tween-20) at 1:250; GAPDH was diluted at 1:2,500. The plates were incubated overnight at 4° C. After washing with PBS/0.05% Tween-20, the cells were incubated with fluorescently-labeled secondary antibodies (Anti-rabbit-Alexa Flour680, Invitrogen Cat #A21109; Anti-mouse-IRDye800CW, Li-cor Bioscieces Cat #926-32210, both at 1:1000 dilution) for 1 hour. Cells were then washed, as above, and analyzed for fluorescence at both 680 nm and 800 nm wavelengths using the Aerius Infrared Imaging System (LI-COR Biosciences, Model 9250). Phosphorylated Erk1/2 ([…]) signal was normalized to GAPDH signal for each well. IC50 values were calculated from the normalized values using a 4-parameter fit in BioAssay software. The reported IC50 in Table 2 may be from a single assay or the mean of multiple assays.

full-length SHP2 = target: T1, full-length SHP2 (Homo sapiens, UniProt Q06124); test: SHP2 enzymatic assay (fluorescence intensity kinetic assay, DiFMUP hydrolysis); format: biochemical; conditions: 1 nM His6-tagged SHP2(2-527), 1 μM activating peptide, 50 μM DiFMUP; single assay or mean of multiple assays; read-out: Biological Example 1 IC50
T1 construct: 1 nM full-length SHP2 (His6-tagged SHP2(2-527), recombinantly expressed in E. coli and purified in-house); His6; made in house; host or cells: E. coli
T1 sequence (Q06124 2-527): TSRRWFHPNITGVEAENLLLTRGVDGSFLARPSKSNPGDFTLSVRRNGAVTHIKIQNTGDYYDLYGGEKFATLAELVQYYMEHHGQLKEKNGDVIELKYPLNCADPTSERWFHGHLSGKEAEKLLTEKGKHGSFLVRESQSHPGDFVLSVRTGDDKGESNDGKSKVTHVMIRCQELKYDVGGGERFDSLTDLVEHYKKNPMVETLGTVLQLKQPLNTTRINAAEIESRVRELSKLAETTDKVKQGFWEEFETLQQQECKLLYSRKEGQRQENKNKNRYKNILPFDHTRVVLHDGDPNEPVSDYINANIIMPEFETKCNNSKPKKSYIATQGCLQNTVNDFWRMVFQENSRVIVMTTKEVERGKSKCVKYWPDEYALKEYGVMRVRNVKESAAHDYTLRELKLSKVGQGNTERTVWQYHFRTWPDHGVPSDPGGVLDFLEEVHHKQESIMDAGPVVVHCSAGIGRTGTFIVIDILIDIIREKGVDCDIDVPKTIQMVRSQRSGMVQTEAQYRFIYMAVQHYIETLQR
Protocol: A fluorescence intensity kinetic assay was configured for full-length SHP2 that monitors the amount of 6,8-difluoro-7-hydroxy-4-methylcoumarin (“DiFMU”) formed upon hydrolysis of 6,8-difluoro-4-methylumbelliferyl phosphate (“DiFMUP”) by SHP2. […] Low control wells lacked enzyme. The assays were initiated by the addition of a mixture of SHP2 and the activating peptide, and following a 15 second mix on an orbital shaker, were read in kinetic mode for 15 minutes (30 seconds/cycle) at ambient temperature on a PerkinElmer EnVision microplate reader (kEx=355 nm, kEm=460 nm). Initial velocities (slopes of the tangents at t=0) were estimated from exponential fits to the slightly nonlinear progress curves and then were converted to percent of control (“POC”) using the following equation:
[formula] • Where: xmax Average Uninhibited Controls • Xmin Average Background A 4-parameter logistic model was the fit to the POC data for each compound. From that fit, the IC50 was estimated and is defined as the concentration of compound at which the curve crosses 50 POC.

| SMILES | pIC50 [1] | pIC50 (full-length SHP2) |
| --- | --- | --- |
| N[C@@H]1c2ccccc2CC12CCN(c1ncc(Sc3ccnc4c3CCN4)nn1)CC2 [Example 70, (S)-1′-(6-((2,3-dihydro-1H-pyrrolo[2,3-b]pyridin-4-yl)thio)-1,2,4-triazin-3-yl)-1,3-dihydrospiro[indene-2,4′-piperidin]-1-amine] | 8.05 | 7.44 |
| N[C@@H]1c2ccccc2CC12CCN(c1ncc(Sc3ccnc4c3C(F)(F)C(=O)N4)nn1)CC2 [Example 25, (S)-4-((3-(1-amino-1,3-dihydrospiro[indene-2,4′-piperidin]-1′-yl)-1,2,4-triazin-6-yl)thio)-3,3-difluoro-1,3-dihydro-2H-pyrrolo[2,3-b]pyridin-2-one] | 8.70 | 7.59 |
| N[C@@H]1c2ccccc2CC12CCN(c1ncc(Sc3ccnc(NCCO)c3Cl)nn1)CC2 [Example 83, (S)-2-((4-((3-(1-amino-1,3-dihydrospiro[indene-2,4′-piperidin]-1′-yl)-1,2,4-triazin-6-yl)thio)-3-chloropyridin-2-yl)amino)ethan-1-ol] | 8.52 | 7.34 |
| N[C@@H]1c2ccccc2CC12CCN(c1ncc(Oc3ccccc3)nn1)CC2 [Example 81, (S)-1′-(6-phenoxy-1,2,4-triazin-3-yl)-1,3-dihydrospiro[indene-2,4′-piperidin]-1-amine] | 8.10 | 8.40 |
| Nc1nccc(Sc2cnc(N3CCC4(CC3)Cc3ncsc3[C@H]4N)nn2)c1Cl [Example 58, (S)-1′-(6-((2-amino-3-chloropyridin-4-yl)thio)-1,2,4-triazin-3-yl)-4,6-dihydrospiro[cyclopenta[d]thiazole-5,4′-piperidin]-6-amine] | 9.00 | 7.41 |
| N[C@@H]1c2cccnc2CC12CCN(c1ncc(Sc3cccc4c3CC4)nn1)CC2 [Example 38, (S)-1′-(6-(bicyclo[4.2.0]octa-1(6),2,4-trien-2-ylthio)-1,2,4-triazin-3-yl)-5,7-dihydrospiro[cyclopenta[b]pyridine-6,4′-piperidin]-5-amine] | 7.39 | 7.89 |
| C[C@@H]1OCC2(CCN(c3ncc(Sc4ccnc5[nH]ccc45)nn3)CC2)[C@@H]1N [Example 8, (3S,4S)-8-(6-((1H-pyrrolo[2,3-6]pyridin-4-yl)thio)-1,2,4-triazin-3-yl)-3-methyl-2-oxa-8-azaspiro[4.5]decan-4-amine] | 7.32 | 7.16 |
| COc1ccc2c(c1)[C@@H](N)C1(CCN(c3ncc(Sc4ccnc(N)c4Cl)nn3)CC1)C2 [Example 84, (S)-1′-(6-((2-amino-3-chloropyridin-4-yl)thio)-1,2,4-triazin-3-yl)-6-methoxy-1,3-dihydrospiro[indene-2,4′-piperidin]-1-amine] | 8.70 | 7.62 |
| Cc1nc(N2CCC3(CC2)CO[C@@H](C)[C@H]3N)nnc1-c1cccc(Cl)c1Cl [Example 5, (3S,4S)-8-(6-(2,3-dichlorophenyl)-5-methyl-1,2,4-triazin-3-yl)-3-methyl-2-oxa-8-azaspiro[4.5]decan-4-amine] | 6.47 | 7.55 |
| Nc1nccc(Sc2cnc(N3CCC4(CC3)Oc3ccccc3[C@H]4N)nn2)c1Cl [Example 23, (R)-1′-(6-((2-amino-3-chloropyridin-4-yl)thio)-1,2,4-triazin-3-yl)-3H-spiro[benzofuran-2,4′-piperidin]-3-amine] | 7.92 | 7.46 |
| Nc1nccc(Sc2cnc(N3[C@H]4CC[C@H]3CC(N)C4)nn2)c1Cl (stereo partly drawn) [Example 3, (1R,3s,5S)-8-(6-((2-amino-3-chloropyridin-4-yl)thio)-1,2,4-triazin-3-yl)-8-azabicyclo[3.2.1]octan-3-amine] | 5.89 | 6.20 |
| Nc1c(Cl)c(Sc2cnc(N3CCC4(CC3)Cc3ccccc3[C@H]4N)nn2)cc[n+]1[O-] [Example 34, (S)-2-amino-4-((3-(1-amino-1,3-dihydrospiro[indene-2,4′-piperidin]-1′-yl)-1,2,4-triazin-6-yl)thio)-3-chloropyridine 1-oxide] | 8.05 | 7.10 |
| N[C@@H]1c2ccccc2CC12CCN(c1ncc(Oc3cccc4cnccc34)nn1)CC2 [Example 28, (S)-1′-(6-(isoquinolin-5-yloxy)-1,2,4-triazin-3-yl)-1,3-dihydrospiro[indene-2,4′-piperidin]-1-amine] | 5.94 | 6.06 |
| COc1nccc(Sc2cnc(N3CCC4(CC3)Cc3ccccc3[C@H]4N)nn2)c1Cl [Example 55, (S)-1′-(6-((3-chloro-2-methoxypyridin-4-yl)thio)-1,2,4-triazin-3-yl)-1,3-dihydrospiro[indene-2,4′-piperidin]-1-amine] | 7.64 | 6.94 |
| N[C@@H]1c2ccccc2CC12CCN(c1ncc(Sc3n[nH]c4ccccc34)nn1)CC2 [Example 67, (S)-1′-(6-((1H-indazol-3-yl)thio)-1,2,4-triazin-3-yl)-1,3-dihydrospiro[indene-2,4′-piperidin]-1-amine] | 7.29 | 7.70 |
| Cc1ccc2c(n1)CC1(CCN(c3ncc(Sc4ccnc(N)c4Cl)nn3)CC1)[C@@H]2N [Example 62] | 8.22 | 7.41 |
| Nc1nccc(Sc2cnc(N3CCC4(CC3)Cc3cc(Cl)ccc3[C@H]4N)nn2)c1Cl [Example 17, (S)-1′-(6-((2-amino-3-chloropyridin-4-yl)thio)-1,2,4-triazin-3-yl)-5-chloro-1,3-dihydrospiro[indene-2,4′-piperidin]-1-amine] | 8.05 | 7.60 |
| CC1(N)CCCN(c2ncc(Sc3cccc(Cl)c3Cl)nn2)CC1 (stereo not drawn) [Example 11, 1-(6-((2,3-dichlorophenyl)thio)-1,2,4-triazin-3-yl)-4-methylazepan-4-amine] | 5.71 | 6.68 |
| Cc1nc2c(s1)[C@@H](N)C1(CCN(c3ncc(Sc4ccnc(N)c4Cl)nn3)CC1)C2 [Example 61, (S)-1′-(6-((2-amino-3-chloropyridin-4-yl)thio)-1,2,4-triazin-3-yl)-2-methyl-4,6-dihydrospiro[cyclopenta[d]thiazole-5,4′-piperidin]-6-amine] | 8.22 | 7.06 |
| Cc1nccc(Sc2cnc(N3CCC4(CC3)Cc3ccccc3[C@H]4N)nn2)c1C [Example 50, (S)-1′-(6-((2,3-dimethylpyridin-4-yl)thio)-1,2,4-triazin-3-yl)-1,3-dihydrospiro[indene-2,4′-piperidin]-1-amine] | 8.22 | 7.36 |
| C[C@@H]1OCC2(CCN(c3ncc(-c4cccc(Cl)c4Cl)nn3)CC2)[C@@H]1N [Example 2, (3S,4S)-8-(6-(2,3-dichlorophenyl)-1,2,4-triazin-3-yl)-3-methyl-2-oxa-8-azaspiro[4.5]decan-4-amine] | 5.56 | 7.12 |
